Experimental data from ChEMBL document CHEMBL4613324, “Design, Synthesis, and Evaluation of a Series of Novel Super Long-Acting DPP-4 Inhibitors for the Treatment of Type 2 Diabetes” (J Med Chem, 2020).
Active and inactive are the calls of the source. The rule behind the calls is not given here.

Columns and labels:
[1] = Clearance in ICR mouse at 0.5 mg/kg, iv measured after 0.0833 to 120 hrs by LC-MS-MS analysis; assay type: ADME, organism-based; conditions: in vivo
[2] = Half life in ICR mouse at 2 mg/kg, po measured after 0.0833 to 120 hrs by LC-MS-MS analysis; assay type: ADME, organism-based; conditions: in vivo
[3] = AUC (0 to t) in ICR mouse at 2 mg/kg, po measured after 0.0833 to 120 hrs by LC-MS-MS analysis; assay type: ADME, organism-based; set-up: time upper 120 hr, time lower 0.083 hr, dose 2 mg/kg, route oral; conditions: in vivo
[4] = Volume of distribution at steady state in ICR mouse at 0.5 mg/kg, iv measured after 0.0833 to 120 hrs by LC-MS-MS analysis; assay type: ADME, organism-based; conditions: in vivo, read-out: Vdss
[5] = Half life in ICR mouse at 0.5 mg/kg, iv measured after 0.0833 to 120 hrs by LC-MS-MS analysis; assay type: ADME, organism-based; conditions: in vivo
[6] = Cmax in ICR mouse at 2 mg/kg, po measured after 0.0833 to 120 hrs by LC-MS-MS analysis; assay type: ADME, organism-based; set-up: dose 2 mg/kg, route oral; conditions: in vivo
[7] = Oral bioavailability in ICR mouse at 2 mg/kg measured after 0.0833 to 120 hrs by LC-MS-MS analysis; assay type: ADME, organism-based; conditions: in vivo
[8] = Intrinsic clearance in mouse liver microsomes at 0.5 uM incubated for 0.5 to 60 mins by LC-MS/MS analysis; assay type: ADME, Microsome; conditions: read-out: CLH
[9] = target: Dipeptidyl peptidase 4 (Mus musculus) (UniProt P28843); assay: Ex-vivo inhibition of DPP4 in plasma isolated from ob/ob mouse treated at 30 mg/kg, po measured after 2 to 72 hrs by fluorescence based assay; assay type: functional, organism-based
[10] = target: Dipeptidyl peptidase 4 (Mus musculus) (UniProt P28843); assay: Ex-vivo inhibition of DPP4 in plasma isolated from ob/ob mouse assessed as time duration during which DPP4 inhibition rate stays above 80% treated at 30 mg/kg, po measured after 2 to 72 hrs by fluorescence based assay; assay type: functional, organism-based
Mus musculus [11] = assay: Antidiabetic activity in ob/ob mouse assessed as reduction in random blood glucose levels at 30 mg/kg, po dosed once every three days for 31 days; assay type: functional, organism-based
[12] = Toxicity in ob/ob mouse assessed as induction of body weight gain at 30 mg/kg, po dosed once every three days for 31 days; assay type: organism-based; conditions: in vivo, 744 h
Mus musculus [13] = assay: Antidiabetic activity in ob/ob mouse assessed as reduction in decrease in HbA1c level at 3 to 30 mg/kg, po dosed once every three days for 31 day; assay type: functional, organism-based
Mus musculus [14] = assay: Antidiabetic activity in ob/ob mouse assessed as reduction in decrease in HbA1c level at 30 mg/kg, po dosed once every three days for 31 day relative to control; assay type: functional; set-up: scale not given: the % may be the effect or the level left

Dipeptidyl peptidase 4 (Mus musculus), sequence (P28843 whole entry, looked up): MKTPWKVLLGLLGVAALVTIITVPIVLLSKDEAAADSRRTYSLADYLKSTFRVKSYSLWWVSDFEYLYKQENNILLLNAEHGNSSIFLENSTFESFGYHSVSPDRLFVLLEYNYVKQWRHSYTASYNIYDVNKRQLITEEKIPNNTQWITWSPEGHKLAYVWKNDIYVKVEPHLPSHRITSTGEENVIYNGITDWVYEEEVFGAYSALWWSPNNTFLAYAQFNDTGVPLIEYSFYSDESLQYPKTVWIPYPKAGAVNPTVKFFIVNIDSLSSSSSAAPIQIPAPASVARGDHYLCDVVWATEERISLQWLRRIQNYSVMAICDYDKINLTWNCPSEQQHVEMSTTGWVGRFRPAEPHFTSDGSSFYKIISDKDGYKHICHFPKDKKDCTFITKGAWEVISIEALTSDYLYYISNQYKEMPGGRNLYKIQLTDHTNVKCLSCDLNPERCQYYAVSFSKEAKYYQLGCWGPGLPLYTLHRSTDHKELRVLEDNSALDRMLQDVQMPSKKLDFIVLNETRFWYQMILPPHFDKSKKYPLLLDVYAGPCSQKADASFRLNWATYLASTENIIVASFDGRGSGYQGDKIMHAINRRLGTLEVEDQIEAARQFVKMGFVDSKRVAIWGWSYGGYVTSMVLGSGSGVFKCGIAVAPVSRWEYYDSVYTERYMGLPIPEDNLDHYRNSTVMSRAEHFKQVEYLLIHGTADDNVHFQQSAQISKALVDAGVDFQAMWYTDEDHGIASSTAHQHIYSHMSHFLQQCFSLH

| clearance [1] [mL/min/kg] | half-life [2] [h] | AUC(0-t) [3] [ng·h/mL] | Vd [4] [L/kg] | half-life [5] [h] | Cmax [6] [ng/mL] | bioavailability [7] [%] | microsomal CLint at 0.5 µM [8] [µL/min/mg] | inhibition [9] | TIME [10] [h] | SMILES | Activity (Mus musculus [11]) | Activity [12] | Activity (Mus musculus [13]) | Activity (Mus musculus [14]) [%] |
| --- | --- | --- | --- | --- | --- | --- | --- | --- | --- | --- | --- | --- | --- | --- |
| 1.44 | 20 | 26500 | 2.27 | 19.7 | 999 | 114 | 1.17 |  |  | CS(=O)(=O)n1cc2c(n1)CN([C@@H]1C[C@H](N)[C@@H](c3cc(F)c(F)cc3F)O[C@@H]1C(F)(F)F)C2 |  |  |  |  |
| 0.645 | 19.2 | 23500 | 0.957 | 20.9 | 1580 | 45.4 | 1.2 |  |  | CS(=O)(=O)n1cc2c(n1)CN([C@H]1CO[C@H](c3cc(F)ccc3F)[C@@H](N)[C@H]1F)C2 |  |  |  |  |
| 7.39 | 4.65 | 4100 | 1.65 | 3.05 | 798 | 95 | 1.89 | Active | 18 | CS(=O)(=O)n1cc2c(n1)CN([C@H]1CO[C@H](c3cc(F)ccc3F)[C@@H](N)C1)C2 [OMARIGLIPTIN] | Active | Toxic | Active | 13.6 |
